What all share (assay type): in vivo
Assay [1] deals with velvetleaf (Abutilon theophrasti). As to the kind of experiment: post-emergence herbicidal activity, velvetleaf. The following applies: 1 Kg/Ha, about fourteen days, read-out: post-emergence herbicidal activity (% control) ABUTH. An outline of the steps: (§1)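 Application rate was 1 Kg/Ha, sprayed post-emergence from a water/acetone solution onto flat-grown plants. Injury is expressed as percent control, 100 meaning complete control, assessed roughly two weeks later.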

In assay [2] the test system is soybean (Glycine max -- var. Winchester). As to the kind of experiment: post-emergence herbicidal activity, soybean. The following applies: 1 Kg/Ha, about fourteen days, read-out: post-emergence herbicidal activity (% control) SOY. Summed up: as §1
Assay [3] concerns field corn (Zea mays var. Pioneer 3732). As to the kind of experiment: pre-emergence herbicidal activity, corn. The following applies: 1 kg/Ha, about fourteen days, read-out: pre-emergence herbicidal activity (% control) CRN. Summed up:
(§2)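 Seeds sown in flats of soil mix were sprayed pre-emergence with test compound in water/acetone at 1 kg/Ha. Flats were held about fourteen days beside untreated controls, then phytotoxicity was scored as percent control (0 = no effect, 100 = complete control).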

The subject of assay [4] is Johnsongrass (Sorghum halepense). As to the kind of experiment: pre-emergence herbicidal activity, johnsongrass. The following applies: 1 kg/Ha, about fourteen days, read-out: pre-emergence herbicidal activity (% control) SORHA. An outline of the steps:
as §2

The test system of assay [5] is green foxtail (Setaria viridis). As to the kind of experiment: pre-emergence herbicidal activity, green foxtail. The following applies: 1 kg/Ha, about fourteen days, read-out: pre-emergence herbicidal activity (% control) SETVI. Summed up:
as §2

The subject of assay [6] is common chickweed (Stellaria media). As to the kind of experiment: post-emergence herbicidal activity, chickweed. The following applies: 1 Kg/Ha, about fourteen days, read-out: post-emergence herbicidal activity (% control) STEME. An outline of the steps:
as §1

Assay [7] relates to soybean (Glycine max -- var. Winchester). As to the kind of experiment: pre-emergence herbicidal activity, soybean. The following applies: 1 kg/Ha, about fourteen days, read-out: pre-emergence herbicidal activity (% control) SOY. An outline of the steps: as §2
The test system of assay [8] is common chickweed (Stellaria media). As to the kind of experiment: pre-emergence herbicidal activity, chickweed. The following applies: 1 kg/Ha, about fourteen days, read-out: pre-emergence herbicidal activity (% control) STEME. Summed up:
as §2

Assay [9] has as its system wheat (Triticum aestivum var. Lew). As to the kind of experiment: post-emergence herbicidal activity, wheat. The following applies: 1 Kg/Ha, about fourteen days, read-out: post-emergence herbicidal activity (% control) WHT. An outline of the steps: as §1
Assay [10] deals with velvetleaf (Abutilon theophrasti). As to the kind of experiment: pre-emergence herbicidal activity, velvetleaf. The following applies: 1 kg/Ha, about fourteen days, read-out: pre-emergence herbicidal activity (% control) ABUTH. Summed up: as §2
Assay [11] relates to wheat (Triticum aestivum var. Lew). As to the kind of experiment: pre-emergence herbicidal activity, wheat. The following applies: 1 kg/Ha, about fourteen days, read-out: pre-emergence herbicidal activity (% control) WHT. Summed up: as §2
Assay [12] concerns field corn (Zea mays var. Pioneer 3732). As to the kind of experiment: post-emergence herbicidal activity, corn. The following applies: 1 Kg/Ha, about fourteen days, read-out: post-emergence herbicidal activity (% control) CRN. Summed up:
as §1

In assay [13] the test system is morningglory (Ipomea lacunosa or Ipomea hederacea). As to the kind of experiment: pre-emergence herbicidal activity, morningglory. The following applies: Ipomoea, 1 kg/Ha, about fourteen days, read-out: pre-emergence herbicidal activity (% control) IPOSS. Summed up:
as §2

For assay [14], the system named is common cocklebur (Xanthium strumarium L.). As to the kind of experiment: post-emergence herbicidal activity, cocklebur. The following applies: 1 Kg/Ha, about fourteen days, read-out: post-emergence herbicidal activity (% control) XANPE. Summed up:
as §1

The subject of assay [15] is Johnsongrass (Sorghum halepense). As to the kind of experiment: post-emergence herbicidal activity, johnsongrass. The following applies: 1 Kg/Ha, about fourteen days, read-out: post-emergence herbicidal activity (% control) SORHA. An outline of the steps: as §1
Assay [16] relates to common cocklebur (Xanthium strumarium L.). As to the kind of experiment: pre-emergence herbicidal activity, cocklebur. The following applies: 1 kg/Ha, about fourteen days, read-out: pre-emergence herbicidal activity (% control) XANPE. Summed up: as §2
The test system of assay [17] is blackgrass (Aloepecurus myosuroides). As to the kind of experiment: pre-emergence herbicidal activity, blackgrass. The following applies: Alopecurus myosuroides, 1 kg/Ha, about fourteen days, read-out: pre-emergence herbicidal activity (% control) ALOMY. An outline of the steps: as §2
For assay [18], the system named is morningglory (Ipomea lacunosa or Ipomea hederacea). As to the kind of experiment: post-emergence herbicidal activity, morningglory. The following applies: Ipomoea, 1 Kg/Ha, about fourteen days, read-out: post-emergence herbicidal activity (% control) IPOSS. Summed up: as §1
The test system of assay [19] is green foxtail (Setaria viridis). As to the kind of experiment: post-emergence herbicidal activity, green foxtail. The following applies: 1 Kg/Ha, about fourteen days, read-out: post-emergence herbicidal activity (% control) SETVI. Summed up:
as §1

The subject of assay [20] is blackgrass (Aloepecurus myosuroides). As to the kind of experiment: post-emergence herbicidal activity, blackgrass. The following applies: Alopecurus myosuroides, 1 Kg/Ha, about fourteen days, read-out: post-emergence herbicidal activity (% control) ALOMY. Summed up:
as §1

Data on two molecules can be found in US6277847A, “Herbicidal isoindolinonyl-and 3,4-dihydroisoquinolonyl-substituted heterocycles” (FMC Corporation, priority 2000, dated 2001).

Regarding `CCN1Cc2c(c(Cl)cc(Cl)c2-n2c(=O)cc(C(F)(F)F)n(C)c2=O)C1=O` [Compound 5], the activity at 1000 g/ha in assay [1] was found to be 100%; in assay [2], 95%; in [3] it was 100%; in assay [4], 100%; in assay [5] it was 100%; in assay [6] it was 100%. Moreover, the activity at 1000 g/ha in assay [7], in assay [8], in assay [9], in assay [10], in assay [11] and in assay [12] was 100% each time. The activity at 1000 g/ha in assay [13], in [14], in assay [15], in assay [16], in assay [17] and in assay [18] was 100% each time. Besides, the activity at 1000 g/ha in [19] and in [20] was 100% in each case.

Take `Cn1c(C(F)(F)F)cc(=O)n(-c2c(Cl)cc(Cl)c3c2CN(C(C)(C)C)C3=O)c1=O` [Compound 6]: the activity at 1000 g/ha in [1] was 100%; in assay [2], 90%; in [3] it was 100%; in [4], 100%; in assay [5], 100%; in assay [6], 100%. Further, the activity at 1000 g/ha in assay [7] was 100%; in assay [8], 100%; in assay [9], 80%; in assay [10] it was 100%; in assay [11], 100%; in assay [12], 100%. Moreover, the activity at 1000 g/ha was 100% in assay [13]; 100% in assay [14]; 100% in assay [15]; 100% in [16]; 100% in [17]; 95% in [18]. Further, the activity at 1000 g/ha in assay [19] and in [20] was 100% each time.
